Assay results reported in ChEMBL document CHEMBL1130370, “Novel hydroxyphosphonate inhibitors of CD-45 tyrosine phosphatase” (Bioorg Med Chem Lett, 1997).

Columns and labels:
[1] = target: T1, Receptor-type tyrosine-protein phosphatase C (Homo sapiens) (UniProt P08575); assay: Inhibition of CD45 protein-tyrosine phosphatase of Jurkat cell membrane at 500 uM.; assay type: cell-based
T1 sequence (whole entry): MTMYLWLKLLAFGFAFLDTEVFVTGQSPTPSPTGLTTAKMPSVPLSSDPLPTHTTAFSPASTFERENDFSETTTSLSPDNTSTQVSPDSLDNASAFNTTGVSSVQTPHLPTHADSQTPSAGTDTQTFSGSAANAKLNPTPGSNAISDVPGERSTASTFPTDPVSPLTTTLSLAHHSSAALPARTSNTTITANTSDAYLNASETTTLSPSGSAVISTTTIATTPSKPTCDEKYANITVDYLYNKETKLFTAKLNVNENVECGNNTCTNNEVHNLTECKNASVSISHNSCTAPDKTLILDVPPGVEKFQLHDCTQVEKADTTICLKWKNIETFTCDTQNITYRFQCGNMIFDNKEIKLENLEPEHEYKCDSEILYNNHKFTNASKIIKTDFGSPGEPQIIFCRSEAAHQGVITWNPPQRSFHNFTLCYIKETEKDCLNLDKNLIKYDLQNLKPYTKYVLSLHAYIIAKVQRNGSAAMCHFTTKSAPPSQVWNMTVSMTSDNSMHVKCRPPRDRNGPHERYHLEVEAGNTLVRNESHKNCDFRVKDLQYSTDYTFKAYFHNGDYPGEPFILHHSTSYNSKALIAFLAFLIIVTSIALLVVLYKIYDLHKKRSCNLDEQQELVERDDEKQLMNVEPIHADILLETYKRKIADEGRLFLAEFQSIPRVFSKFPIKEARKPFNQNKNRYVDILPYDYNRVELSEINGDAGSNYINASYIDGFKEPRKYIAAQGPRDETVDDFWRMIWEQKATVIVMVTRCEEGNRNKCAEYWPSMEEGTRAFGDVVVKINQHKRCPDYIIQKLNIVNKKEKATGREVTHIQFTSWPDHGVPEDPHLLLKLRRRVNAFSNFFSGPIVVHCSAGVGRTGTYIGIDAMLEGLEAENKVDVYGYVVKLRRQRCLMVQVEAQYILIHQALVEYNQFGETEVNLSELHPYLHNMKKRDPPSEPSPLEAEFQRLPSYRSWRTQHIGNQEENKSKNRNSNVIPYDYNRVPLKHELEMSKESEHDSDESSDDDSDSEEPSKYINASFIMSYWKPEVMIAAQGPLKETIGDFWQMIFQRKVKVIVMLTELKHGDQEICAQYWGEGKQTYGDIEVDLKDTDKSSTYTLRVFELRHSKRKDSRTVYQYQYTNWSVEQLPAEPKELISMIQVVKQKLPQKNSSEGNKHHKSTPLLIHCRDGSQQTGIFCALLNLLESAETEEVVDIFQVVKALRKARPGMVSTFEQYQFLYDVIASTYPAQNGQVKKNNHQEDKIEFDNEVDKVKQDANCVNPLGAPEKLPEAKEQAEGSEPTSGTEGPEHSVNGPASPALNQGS

[2] = target: T1, Receptor-type tyrosine-protein phosphatase C (Homo sapiens); assay: Compound was tested for its inhibitory activity against CD45 protein-tyrosine phosphatase of Jurkat cell membrane at 1000 uM concentration; assay type: cell-based
[3] = target: T2, Receptor-type tyrosine-protein phosphatase C (Homo sapiens, UniProt P08575); assay: Tested for inhibitory activity against CD45 protein-tyrosine phosphatase of Jurkat cell membrane at 1000 uM; assay type: cell-based
T2 sequence (P08575 whole entry): T1 sequence (whole entry)

[4] = Compound was tested for its inhibitory activity against Osteoclastic acid phosphatase; parameters: species or system Homo sapiens
[5] = target: T1, Receptor-type tyrosine-protein phosphatase C (Homo sapiens); assay: Compound was tested for its inhibitory activity against CD45 protein-tyrosine phosphatase of Jurkat cell membrane at 250 uM concentration; assay type: cell-based
[6] = target: T3, Prostatic acid phosphatase (Homo sapiens, UniProt P15309); assay: Compound was tested for its inhibitory activity against human prostatic acid phosphatase
T3 sequence (P15309 whole entry): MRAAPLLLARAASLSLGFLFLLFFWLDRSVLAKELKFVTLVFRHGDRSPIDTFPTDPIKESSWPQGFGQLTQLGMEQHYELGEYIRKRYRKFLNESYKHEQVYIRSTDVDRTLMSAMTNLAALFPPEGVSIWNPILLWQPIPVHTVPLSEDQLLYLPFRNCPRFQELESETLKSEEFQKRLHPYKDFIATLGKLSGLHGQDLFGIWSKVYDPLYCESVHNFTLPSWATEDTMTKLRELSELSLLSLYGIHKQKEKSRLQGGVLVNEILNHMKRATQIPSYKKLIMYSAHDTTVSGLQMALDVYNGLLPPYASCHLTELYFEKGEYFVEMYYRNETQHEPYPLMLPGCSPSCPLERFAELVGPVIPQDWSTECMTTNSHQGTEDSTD

Row | SMILES | inhibition [1] [%] | also measured
1 | O=P(O)(O)C(O)c1cccnc1 (stereo unspecified) | 13 | 
2 | O=P(O)(O)C(O)c1ccccc1 (stereo unspecified) |  | inhibition [2]: 39%
3 | O=P(O)(O)C(O)c1ccnc2ccccc12 (stereo unspecified) | 58 | 
4 | Cc1cccc(C(c2ccccc2)P(=O)(O)O)c1 (stereo unspecified) | 8 | 
5 | O=P(O)(O)C(O)c1ccc2ccccc2c1 (stereo unspecified) | 59 | 
6 | O=[N+]([O-])c1ccc(Cl)c(C(O)P(=O)(O)O)c1 (stereo unspecified) | 81 | 
7 | O=[N+]([O-])c1cccc(CP(=O)(O)O)c1 | 17 | 
8 | O=[N+]([O-])c1cccc(C(O)P(=O)(O)O)c1 (stereo unspecified) |  | IC50 [3]: 10 µM; inhibition [2]: 93%
9 | O=[N+]([O-])c1ccc(O)c(C(O)P(=O)(O)O)c1 (stereo unspecified) | 75 | 
10 | Nc1cccc(C(O)P(=O)(O)O)c1 (stereo unspecified) | 23 | 
11 | O=C(c1ccccc1)C(C(=O)c1ccccc1)(c1cccc2ccccc12)P(=O)(O)O | 8 | IC50 [4]: 1.4 µM
12 | O=P(O)(O)C(NCc1ccccc1)c1cccc2ccccc12 (stereo unspecified) |  | inhibition [5]: 23%; IC50 [6]: 0.0086 µM
13 | O=P(O)(O)C(O)c1cccc(O)c1 (stereo unspecified) | 0 | 
14 | CS(=O)(=O)c1ccc(C(O)P(=O)(O)O)cc1 (stereo unspecified) | 41 | 
15 | N#Cc1cccc(C(O)P(=O)(O)O)c1 (stereo unspecified) |  | inhibition [2]: 49%
16 | CC(O)(c1cccc([N+](=O)[O-])c1)P(=O)(O)O (stereo unspecified) |  | IC50 [3]: 58 µM; inhibition [2]: 97%
17 | Cc1cccc(C(O)P(=O)(O)O)c1 (stereo unspecified) | 27 | 
18 | O=[N+]([O-])c1cc(C(O)P(=O)(O)O)cs1 (stereo unspecified) | 93 | 
19 | O=P(O)(O)C(O)c1ccccn1 (stereo unspecified) | 2 | 
20 | O=P(O)(O)C(O)c1ccncc1 (stereo unspecified) | 0 | 
21 | O=[N+]([O-])c1ccc(C(O)P(=O)(O)O)cc1 (stereo unspecified) |  | IC50 [3]: 28 µM; inhibition [2]: 98%
22 | COc1ccc(C(O)P(=O)(O)O)cc1 (stereo unspecified) | 42 | 
23 | O=[N+]([O-])c1cc(C(O)P(=O)(O)O)ccc1O (stereo unspecified) |  | inhibition [2]: 8%
24 | O=P(O)(O)C(O)c1cccc2ccccc12 (stereo unspecified) |  | inhibition [2]: 53%
25 | O=P(O)(O)C(O)c1cccc(Cl)c1 (stereo unspecified) | 49 | 
26 | O=[N+]([O-])c1ccc(SC2CCCCC2)c(C(O)P(=O)(O)O)c1 (stereo unspecified) | 99 | 
